Experimental data from publication PMC11003450, “Structure-property relationships of fluorinated carboxylic acid bioisosteres” (Bioorganic & medicinal chemistry letters, 2023).
Read-outs that look alike come from different tables or passages of the source.

Columns and labels:
[1] = PAMPA (parallel artificial membrane permeability assay, ran by Analiza); format: in vitro ADME; details: for Papp: PAMPA
From the text: In this work, in order to compare the properties of fluorinated carboxylic acid surrogates with those of other commonly used nonfluorinated bioisosteres, we present the design and synthesis of a focused set of matched molecular pairs (MMPs), which include examples of substituted alcohols and phenols featuring one or more fluorine atoms, and the characterization of these compounds for key physicochemical properties such as acidity (pKa), lipophilicity (logD7.4 and permeability (logPapp) in a parallel artificial membrane permeability assay (PAMPA). The data presented allow for an assessment of the impact of incorporation of fluorine on the physicochemical properties of carboxylic acid surrogates.

[2] = logD7.4 by potentiometric titration (Sirius T3); details: n-octanol/aqueous buffer
[3] = pKa by potentiometric titration (Sirius T3)
[4] = supplement csv; previously described derivatives A-Y; ref [3]-[5]; cited from earlier work
[5] = supplement csv; previously described phenylpropionic acid derivatives A-Y; ref [3]-[5]; cited from earlier work
[6] = class by Pe, read-out: PAMPA Permeability
[7] = pH 7.4, logD7.4, n-octanol / aqueous buffer pH 7.4, Table 1
[8] = pH 7.4, logD7.4, supplement csv, compounds 1, 2, 3-10
[9] = pKa (anilinium/aniline), anilinium/aniline pKa, Table 1
[10] = pKa, acidic group (carboxylic acid, alcohol or phenol), Table 1
[11] = read-out: PAMPA Pe (effective permeability)
[12] = difference between experimental and calculated pKa, experimental vs ChemAxon
[13] = pKa (anilinium/aniline), supplement csv, first value of cell, anilinium/aniline

Row | SMILES | pKa [4] | logD7.4 [5] | other results
1 | O=C(O)CCc1ccccc1 [Compound 1] | – | – | Papp [1, 6]: > 1.5 ×10⁻⁶ cm/s
2 | Nc1ccc(CCC(=O)O)cc1 [Compound 2] | – | – | logD [2, 7]: -2.13; logD [2, 8]: -2.13; PAMPA % retention (membrane retention) [1]: 0.05%; Papp [1, 6]: < 1.5 ×10⁻⁶ cm/s; pKa [3, 9]: 5.17; pKa [3, 10]: 4.12
3 | Nc1ccc(CCC(O)(C(F)(F)F)C(F)(F)F)cc1 [Compound 3] | – | – | logD [2, 7]: 3.04; logD [2, 8]: 3.14; PAMPA % retention (membrane retention) [1]: 0.171%; Papp [1, 6]: > 1.5 ×10⁻⁶ cm/s; Papp [1, 11]: 12 ×10⁻⁶ cm/s; pKa [3, 12]: 1 to 1.7; pKa [3, 9]: 4.06; pKa [3, 13]: 4.88; pKa [3, 10]: 7.96; pKa ([3]; pKa, supplement csv, acidic group, compounds 1, 2, 3-10): 9.38
4 | Nc1ccc(CCC(O)(C(F)F)C(F)F)cc1 [Compound 4] | – | – | logD [2, 7]: 1.46; logD [2, 8]: 1.46; PAMPA % retention (membrane retention) [1]: 0.02%; Papp [1, 6]: > 1.5 ×10⁻⁶ cm/s; Papp [1, 11]: 10.1 ×10⁻⁶ cm/s; pKa [3, 12]: 1 to 1.7; pKa [3, 9]: 4.79; pKa [3, 10]: > 12
5 | Nc1ccc(CCC(O)C(F)(F)F)cc1 (centres unmarked) [Compound 5] | – | – | logD [2, 7]: 1.83; logD [2, 8]: 1.83; Papp [1, 6]: > 1.5 ×10⁻⁶ cm/s; Papp [1, 11]: 11.7 ×10⁻⁶ cm/s; pKa [3, 9]: 4.72; pKa [3, 13]: 4.9; pKa [3, 10]: 11.7
6 | Nc1ccc(CCC(O)C(F)F)cc1 (centres unmarked) [Compound 6] | – | – | logD [2, 7]: 0.92; logD [2, 8]: 0.92; PAMPA % retention (membrane retention) [1]: 0.015%; Papp [1, 6]: > 1.5 ×10⁻⁶ cm/s; Papp [1, 11]: 10.2 ×10⁻⁶ cm/s; pKa [3, 9]: 4.87; pKa [3, 10]: > 12
7 | Nc1ccc(Cc2cccc(O)c2C(F)(F)F)cc1 [Compound 7] | – | – | logD [2, 7]: 3.17; logD [2, 8]: 3.17; PAMPA % retention (membrane retention) [1]: 0.195%; Papp [1, 6]: > 1.5 ×10⁻⁶ cm/s; Papp [1, 11]: 13.8 ×10⁻⁶ cm/s; pKa [3, 9]: 4.69; pKa [3, 10]: 8.85
8 | Nc1ccc(Cc2cccc(O)c2OC(F)(F)F)cc1 [Compound 8] | – | – | logD [2, 7]: 2.29; logD [2, 8]: 2.29; PAMPA % retention (membrane retention) [1]: 0.36%; Papp [1, 6]: > 1.5 ×10⁻⁶ cm/s; Papp [1, 11]: 8.63 ×10⁻⁶ cm/s; pKa [3, 9]: 4.58; pKa [3, 10]: 9.67
9 | Nc1ccc(Cc2cccc(O)c2SC(F)(F)F)cc1 [Compound 9] | – | – | logD [2, 7]: 2.72; logD [2, 8]: 2.72; Papp [1, 6]: > 1.5 ×10⁻⁶ cm/s; Papp [1, 11]: 7.28 ×10⁻⁶ cm/s; pKa [3, 9]: 4.24; pKa [3, 10]: 9.51
10 | Nc1ccc(Cc2cccc(O)c2[S+]([O-])C(F)(F)F)cc1 (centres unmarked) [Compound 10] | – | – | logD [2, 7]: 1.96; logD [2, 8]: 2; PAMPA % retention (membrane retention) [1]: 0.24%; Papp [1, 6]: > 1.5 ×10⁻⁶ cm/s; Papp [1, 11]: 10.5 ×10⁻⁶ cm/s; pKa [3, 9]: 4.21; pKa [3, 10]: 7.93
11 | Oc1cccc(Cc2ccccc2)c1C(F)(F)F [Compound 32] | – | – | logD [2, 7]: 4.29; pKa ([3]; difference in Δ pKa between 32 and 7, Δ = isostere minus corresponding -COOH, 32 vs matched pair 7): 0.46; pKa [3, 10]: 8.91
12 | O=C(CCc1ccccc1)NO [Compound A1] | 8.18 | – | –
13 | CC(=O)N(O)CCc1ccccc1 [Compound A2] | 8.83 | – | –
14 | CONC(=O)CCc1ccccc1 [Compound B1] | 9.47 | – | –
15 | CC(=O)NOCCc1ccccc1 [Compound B2] | 9.58 | – | –
16 | NS(=O)(=O)CCc1ccccc1 [Compound G1] | 10.04 | – | –
17 | CN(C)S(=O)(=O)NC(=O)CCc1ccccc1 [Compound H2] | 5.79 | 0.12 | –
18 | CC1(NS(=O)(=O)CCc2ccccc2)COC1 [Compound H5] | 10.45 | 1.58 | –
19 | CC(=O)NC1(CCc2ccccc2)CS(=O)(=O)C1 [Compound H6] | >12 | 1.18 | –
20 | O=S(=O)(NC1(CCc2ccccc2)COC1)c1ccccc1 [Compound H8] | 10.29 | 2.76 | –

Row | SMILES | pKa [4] | logD7.4 [5] | other results
21 | CN(C)S(=O)(=O)NC1(CCc2ccccc2)COC1 [Compound H9] | 11.02 | 1.96 | –
22 | CS(=O)(=O)NC1(CCc2ccccc2)CSC1 [Compound H10] | 10.45 | 2.44 | –
23 | O=S(=O)(NC1(CCc2ccccc2)CSC1)c1ccccc1 [Compound H11] | >12 | 2.96 | –
24 | CN(C)S(=O)(=O)NC1(CCc2ccccc2)CSC1 [Compound H12] | 11.93 | 2.83 | –
25 | CS(=O)(=O)NC1(CCc2ccccc2)C[S+]([O-])C1 (centres unmarked) [Compound H13] | 9.87 | 0.87 | –
26 | O=S(=O)(NC1(CCc2ccccc2)C[S+]([O-])C1)c1ccccc1 (centres unmarked) [Compound H14] | – | 0.76 | –
27 | CN(C)S(=O)(=O)NC1(CCc2ccccc2)C[S+]([O-])C1 (centres unmarked) [Compound H15] | 10.33 | 1.45 | –
28 | CS(=O)(=O)NC1(CCc2ccccc2)CS(=O)(=O)C1 [Compound H16] | 9.44 | 1.03 | –
29 | O=S1(=O)CC(CCc2ccccc2)(NS(=O)(=O)c2ccccc2)C1 [Compound H17] | 10.22 | 1.89 | –
30 | CN(C)S(=O)(=O)NC1(CCc2ccccc2)CS(=O)(=O)C1 [Compound H18] | 9.58 | 1.82 | –
31 | CS(=O)(=O)Nc1cc(-c2ccccc2)on1 [Compound H19] | 5.22 | -0.42 | –
32 | O=S(=O)(Nc1cc(-c2ccccc2)on1)c1ccccc1 [Compound H20] | 6.62 | 0.99 | –
33 | CN(C)S(=O)(=O)Nc1cc(-c2ccccc2)on1 [Compound H21] | 5.62 | 0.42 | –
34 | CS(=O)(=O)Nc1cn(-c2ccccc2)nn1 [Compound H22] | 6.34 | 0.06 | –
35 | O=S(=O)(Nc1cn(-c2ccccc2)nn1)c1ccccc1 [Compound H23] | 5.93 | 1.06 | –
36 | CN(C)S(=O)(=O)Nc1cn(-c2ccccc2)nn1 [Compound H24] | 6.42 | 0.69 | –
37 | O=C1C=C(O)CC1Cc1ccccc1 (centres unmarked) [Compound T1] | 4.01 | -0.7 | –
38 | CC1=C(O)C(Cc2ccccc2)CC1=O (centres unmarked) [Compound T2] | 4.47 | -0.33 | –
39 | O=C1CCC(O)=C1Cc1ccccc1 [Compound T3] | 4.44 | -0.6 | –
40 | O=C1CCC(Cc2ccccc2)=C1O [Compound U1] | 8.88 | – | –

Row | SMILES | pKa [4] | logD7.4 [5] | other results
41 | O=C1CC(c2ccccc2)C=C1O (centres unmarked) [Compound U2] | 8.28 | – | –
42 | Oc1c(F)cc(Cc2ccccc2)cc1F [Compound W1] | 7.19 | – | –
43 | Oc1c(F)ccc(Cc2ccccc2)c1F [Compound W2] | 7.05 | – | –
44 | Oc1ccccc1SCc1ccccc1 [Compound W3] | 9.06 | 3.78 | –
45 | [O-][S+](Cc1ccccc1)c1ccccc1O (centres unmarked) [Compound W4] | 7.7 | – | –
46 | O=S(=O)(Cc1ccccc1)c1ccccc1O [Compound W5] | 7.12 | – | –
47 | OC1(CCc2ccccc2)CSC1 [Compound X1] | >12 | – | –
48 | [O-][S+]1CC(O)(CCc2ccccc2)C1 (centres unmarked) [Compound X2] | >12 | – | –
49 | O=[PH](O)CCc1ccccc1 [D] | 1.98 | – | –
50 | O=S(O)CCc1ccccc1 [F] | 2.1 | – | –
51 | CS(=O)(=O)NC(=O)NCc1ccccc1 [I] | 5.04 | -1.19 | –
52 | c1ccc(CCc2nnn[nH]2)cc1 [K] | 5.09 | -0.36 | –
53 | O=C1NC(=O)C(Cc2ccccc2)S1 (centres unmarked) [L] | 6.19 | – | –
54 | O=C1NC(=O)C(Cc2ccccc2)O1 (centres unmarked) [M] | 5.86 | – | –
55 | O=c1[nH]c(CCc2ccccc2)no1 [N] | 5.73 | – | –
56 | O=c1[nH]c(CCc2ccccc2)ns1 [O] | 6.5 | – | –
57 | S=c1[nH]c(CCc2ccccc2)no1 [Q] | 3.58 | – | –
58 | Oc1cc(Cc2ccccc2)on1 [R] | 5.36 | – | –
59 | O=C1CC(=O)C(Cc2ccccc2)N1 (centres unmarked) [S] | 6.08 | – | –
60 | OC1(CCc2ccccc2)COC1 [Y] | >12 | – | –
